Data on four compounds can be found in patent US7557108B2, “(Indol-4-yl) or (indol-5-yl)-piperazinylmethanones” (Hoffmann-La Roche Inc., priority 2007, dated 2009).

The target of the assay is T1, human H3R (Homo sapiens, UniProt Q9Y5N1).
T1 construct: expressed in transfected cells; host or cells: CHO cells
T1 sequence (Q9Y5N1 whole entry): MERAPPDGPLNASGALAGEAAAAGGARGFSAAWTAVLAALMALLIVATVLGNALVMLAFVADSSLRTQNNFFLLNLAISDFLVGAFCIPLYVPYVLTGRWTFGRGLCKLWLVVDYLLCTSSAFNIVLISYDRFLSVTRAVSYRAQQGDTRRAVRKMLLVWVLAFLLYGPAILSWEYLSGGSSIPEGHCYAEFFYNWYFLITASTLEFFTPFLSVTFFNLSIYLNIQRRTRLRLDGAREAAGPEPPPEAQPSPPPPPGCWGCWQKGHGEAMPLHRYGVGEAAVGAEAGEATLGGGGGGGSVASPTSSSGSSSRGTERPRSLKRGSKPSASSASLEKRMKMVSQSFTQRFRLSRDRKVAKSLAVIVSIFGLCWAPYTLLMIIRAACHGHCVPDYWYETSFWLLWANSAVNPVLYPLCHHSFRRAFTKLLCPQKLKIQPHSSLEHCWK
Briefly: Binding assay with 3H-(R)α-methylhistamine (competition binding, membranes of the human H3R-CHO cell line). Particulars: competition with 3H(R)α-methylhistamine (1 nM), Ki calculated from IC50 by Cheng-Prusoff. The protocol: Binding Assay With ^3H—(R)α-methylhistamine
Saturation binding experiments were performed using HR3-CHO membranes prepared as described in Takahashi, K, Tokita, S., Kotani, H. (2003) J. Pharmacol. Exp. Therapeutics 307, 213-218.
An appropriate amount of membrane (60 to 80 μg protein/well) was incubated with increasing concentrations of ^3H(R)α-Methylhistamine di-hydrochloride (0.10 to 10 nM). Non specific binding was determined using a 200 fold excess of cold (R)α-Methylhistamine dihydrobromide (500 nM final concentration). The incubation was carried out at room temperature (in deep-well plates shaking for three hours). The final volume in each well was 250 μl. The incubation was followed by rapid filtration on GF/B filters (pre-soaked with 100 μl of 0.5% PEI in Tris 50 mM shaking at 200 rpm for two hours). The filtration was made using a cell-harvester and the filter plates were then washed five times with ice cold washing buffer containing 0.5 M NaCl. After harvesting, the plates were dried at 55° C. for 60 min, then we added scintillation fluid (Microscint 40, 40 microl in each well) and the amount of radioactivity on the filter was determined in Packard top-counter after shaking the plates for two hours at 200 rpm at room temperature.
Binding Buffer: 50 mM Tris-HCl pH 7.4 and 5 mM MgCl2×6H2O pH 7.4. Washing Buffer: 50 mM Tris-HCl pH 7.4 and 5 mM MgCl2×6H2O and 0.5 M NaCl pH 7.4.
Indirect measurement of affinity of H3R inverse agonists: twelve increasing concentrations (ranging from 10 μM to 0.3 nM) of the selected compounds were always tested in competition binding experiments using membrane of the human H3R—CHO cell line. An appropriate amount of protein, e.g. approximately 500 cpm binding of RAMH at Kd, were incubated for 1 hour at room temperature in 250 μl final volume in 96-well plates in presence of ^3H(R)α-methylhistamine (1 nM final concentration=Kd). Non-specific binding was determined using a 200 fold excess of cold (R)α-methylhistamine dihydrobromide.
All compounds were tested at a single concentration in duplicate. […] The concentration at which 50% inhibition of the radioligand ^3H(R)α-methylhistamine is obtained (the IC50) is determined from the linear regression of a plot of the logarithm of the concentration versus percent inhibition measured for the different concentrations. Ki's were calculated from IC50 based on Cheng-Prusoff equation (Cheng, Y, Prusoff, W H (1973) Biochem Pharmacol 22, 3099-3108): Ki=IC50/[1+D/Kd] wherein D is the concentration of the radioligand and Kd is the binding constant for the radioligand binding to the receptor under the conditions used in the competition experiment.
Turning to `CC(C)N1CCN(C(=O)c2ccc3c(ccn3CC3CCCC3)c2)CC1` [Example 1, (1-Cyclopentylmethyl-1H-indol-5-yl)-(4-isopropyl-piperazin-1-yl)-methanone], the Ki is 84.4 nM.

Regarding `O=C(c1ccc2c(ccn2S(=O)(=O)c2cccs2)c1)N1CCN(C2CCCC2)CC1` [Example 20, (4-cyclopentyl-piperazin-1-yl)-[1-(thiophene-2-sulfonyl)-1H-indol-5-yl]-methanone], the inhibitory constant (Ki) was 52.2 nM.

On to `CC(C(=O)c1ccccc1)n1ccc2c(C(=O)N3CCN(C4CCCC4)CC3)cccc21` (stereo not shown) [Example 34, 2-[4-(4-Cyclopentyl-piperazine-1-carbonyl)-indol-1-yl]-1-phenyl-propan-1-one], for which the inhibition constant Ki is 93.5 nM.

In the case of `O=C(c1cccc2c1ccn2Cc1ccc(F)cc1Cl)N1CCN(C2CCCC2)CC1` [Example 41, [1-(2-chloro-4-fluoro-benzyl)-1H-indol-4-yl]-(4-cyclopentyl-piperazin-1-yl)-methanone], the inhibition constant Ki was 17.4 nM.

By Ki is commonly meant a dissociation constant, usually derived from enzyme kinetics or from competition with a known ligand.
